Reference: US20250134907A1, “FUSED DIAZEPINES AS AGONISTS OF THE INSULIN-LIKE 3 (INSL3) PEPTIDE RECEPTOR RXFP2 AND METHODS OF USE THEREOF” (The United States of America,as represented by the …, priority 2022, published 2025)

Tests used:
RXFP1 = target: T1, RXFP1 (Homo sapiens, UniProt Q9HBX9); experiment: HTRF cAMP counter-screen in HEK-RXFP1 cells; type: cell-based; details: compound 10 μM-[…], IBMX 200 μM
T1 construct: expressed in transfected cells
T1 sequence (Q9HBX9 1-757): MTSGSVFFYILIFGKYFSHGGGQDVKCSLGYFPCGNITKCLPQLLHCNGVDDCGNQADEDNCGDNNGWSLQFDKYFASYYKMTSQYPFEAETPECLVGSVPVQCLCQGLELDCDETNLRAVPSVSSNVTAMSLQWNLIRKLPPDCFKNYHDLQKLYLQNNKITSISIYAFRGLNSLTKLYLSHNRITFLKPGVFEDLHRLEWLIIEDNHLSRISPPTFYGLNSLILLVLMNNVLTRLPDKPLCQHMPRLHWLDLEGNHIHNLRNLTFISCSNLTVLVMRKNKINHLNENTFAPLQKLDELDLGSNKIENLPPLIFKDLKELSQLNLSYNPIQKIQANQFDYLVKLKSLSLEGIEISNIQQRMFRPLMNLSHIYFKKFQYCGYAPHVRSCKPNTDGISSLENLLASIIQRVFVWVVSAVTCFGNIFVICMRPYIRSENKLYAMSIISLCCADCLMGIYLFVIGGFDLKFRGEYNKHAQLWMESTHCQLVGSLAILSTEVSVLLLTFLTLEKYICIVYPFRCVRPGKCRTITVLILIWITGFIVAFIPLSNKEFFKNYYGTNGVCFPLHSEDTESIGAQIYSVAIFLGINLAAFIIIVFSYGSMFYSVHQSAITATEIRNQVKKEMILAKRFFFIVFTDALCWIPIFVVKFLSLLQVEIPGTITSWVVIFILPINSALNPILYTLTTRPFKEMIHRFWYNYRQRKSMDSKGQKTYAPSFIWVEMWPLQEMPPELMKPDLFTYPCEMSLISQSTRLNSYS
Description: HEK293T cells stably transfected with RXFP1 (HEK-RXFP1) were used to test compound specificity towards the RXFP2 receptor using the HTRF Gs dynamic cAMP assay kit (PerkinElmer, Waltham, MA). This is a competitive immunoassay where a time-resolved fluorescence resonance energy (TR-FRET) signal is produced when exogenous d2-labeled cAMP (acceptor) binds to europium cryptate-conjugated anti-cAMP antibody (donor). No signal is produced when endogenous cAMP binds to the antibody. Thus, the TR-FRET signal is inversely proportional to the concentration of cAMP produced by the cells. The HTRF cAMP assay was carried out in the presence of isobutylmethylxanthine phosphodiesterase inhibitor (IBMX) at 200 μM to amplify the cAMP signal. For this assay, cells were seeded in 96-well flat-bottom opaque plates at 30,000 cells/well in 60 μL/well of serum-free DMEM medium and allowed to attach overnight at 37° C., 5% CO2. The next morning, cells were treated with 1 μL/well of compound (10 μM-1.2 nM), 1 μM forskolin, or DMSO vehicle. Cells were also treated with 4 μL of 10 nM Relaxin2 (Peprotech, Cranbury, NJ) as a positive control or vehicle (serum-free DMEM+IBMX). […] Cells were incubated for 1 hour at room temperature, and then the signal was read on a CLARIOstar plate reader (BMG Labtech, Germany). […]

HEK293T cells = experiment: CellTiter-Glo cytotoxicity assay in HEK293T cells; type: cell-based, human; details: 24 h, 25 μM and 8.3 μM
Experimental: Cytotoxicity induced by the compounds in HEK293T cells and primary human calvarial osteoblasts (HCO) (ScienCell Research Laboratories, San Diego, CA) were tested using the […]-GLO™ Luminescent Cell Viability Assay (Promega, Madison, WI). This is a luminescence-based assay that determines viable cells by measuring cellular adenosine triphosphate (ATP) production. The luciferase enzyme requires ATP to catalyze the conversion of beetle luciferin to oxyluciferin and light. Thus, luciferase activity is proportional to ATP accumulation in the cells. For this assay, 96-well flat-bottom opaque plates seeded with HEK293T cells at 5,000 cells/well and HCO cells at 3,000 cells/well in 100 μL/well of growth medium (DMEM, 10% FBS, 1× Penicillin/Streptomycin). After incubating overnight at 37° C., 5% CO2 to allow attachment, cells were treated with 1 μL/well of compound (25-0.1 μM) or DMSO vehicle and incubated an additional 24 hours. Then cells were equilibrated for 30 minutes at room temperature and 100 μL/well of […]-GLO™ Reagent was added. Plates were placed on an orbital shaker for 2 minutes and incubated at room temperature for 10 minutes to stabilize the luminescent signal, which was read immediately after on a CLARIOstar plate reader (BMG Labtech, Germany). […] The HEK293T results represent the means±SEM of 3 technical replicates. The HCO results represent the means±SEM of 3 independent experiments.

[1] = tested on: gubernaculum of female embryos; experiment: Gubernaculum development in female embryos of treated pregnant mice; type: in vivo, C57BL/6J mice; details: 30 mg/kg intraperitoneal to pregnant females, embryonic day 12.5 to 17.5
Description: The role of INSL3 and RXFP2 in gubernaculum development for the initial transabdominal descent of the testis during embryogenesis has been widely characterized in Insl3^-/- and Rxfp2^-/- mouse models of cryptorchidism. […] The gubernaculum is composed of the gubernacular bulb and cord, and it has begun invagination into the abdominal wall in preparation for the inguinoscrotal stage of testicular descent, which will finalize after birth. […] The hypothesis for our experiment is that by injecting pregnant females with the RXFP2 agonists during this embryonic development window, gubemaculum development could be induced in female embryos, which has been previously shown in female embryos overexpressing INSL3. […] For this assay, whole embryos were fixed in 10% formaldehyde for 24 hours. Afterwards, embryos were washed twice with PBS for 1 hour, followed by 3 consecutive washes with increasing concentrations of ethanol (30%, 50% and 70%) for 30 minutes. Fixed embryos were prepared for histology using an automatic tissue processor (Leica TP1020, Leica Biosystems, Germany), embedded in paraffin wax, and 5-7 μm sagittal serial sections were cut using an automated rotary microtome (Leica RM2255, Leica Biosystems, Germany). […] At least 4 embryos were analyzed per treatment group.

| SMILES | RXFP1 cAMP response (activation of RXFP1) (RXFP1) | cytotoxicity (HEK293T cells) | gubernaculum morphology in embryonic day 18.5 female embryos [1] |
| --- | --- | --- | --- |
| O=C1Nc2ccc(-c3cccc(C(F)(F)F)c3)cc2C(=O)N2CCN(C(=O)COc3ccc(OC(F)(F)F)cc3Br)C[C@@H]12 [Example 123, (S)-2-(2-(2-bromo-4-(trifluoromethoxy)phenoxy)acetyl)-8-(3-(trifluoromethyl)phenyl)-1,3,4,12a-tetrahydrobenzo[e]pyrazino[1,2-a][1,4]diazepine-6,12 (2H, 11H)-dione] | do not activate | some toxicity | – |
| O=C1Nc2ccc(-c3cc(C(F)(F)F)cc(C(F)(F)F)c3)cc2C(=O)N2CCN(C(=O)COc3ccc(OC(F)(F)F)cc3Br)C[C@@H]12 [Example 158, (S)-8-(3,5-Bis(trifluoromethyl)phenyl)-2-(2-(2-bromo-4-(trifluoromethoxy)phenoxy)acetyl)-1,3,4,12a-tetrahydrobenzo[e]pyrazino[1,2-a][1,4]diazepine-6,12 (2H, 11H)-dione] | do not activate | some toxicity | male-like invagination of the gubemaculum |
| O=C1Nc2ccc(-c3cc(C(F)(F)F)cc(C(F)(F)F)c3)cc2C(=O)N2CCN(C(=O)COc3ccc(OC(F)(F)F)cc3I)C[C@@H]12 [Example 187, (S)-8-(3,5-bis(trifluoromethyl)phenyl)-2-(2-(2-iodo-4-(trifluoromethoxy)phenoxy)acetyl)-1,3,4,12a-tetrahydrobenzo[e]pyrazino[1,2-a][1,4]diazepine-6,12 (2H, 11H)-dione] | – | – | male-like invagination of the gubemaculum |
